Among the test systems are ACHN renal; CAKI-1 renal; LXFL 529 NSCLC; M19-MEL melanoma; OVCAR-3 ovarian; SR leukemia; TK-10 renal; U251 CNS; UACC-62 melanoma; MCF7 breast.
Common to all, as to assay: DTP human tumour cell line panel, 48 h

Each structure is given as a SMILES string.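 Test compounds were applied to cells in 96-well plates for 48 hours at 5 doses. The concentration for 50% growth inhibition is given as GI50. TGI is the concentration that stops growth completely.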

14 compounds from PubChem BioAssay (NCI) can be followed below.

Regarding `CC1(C)COC2C(N(Cc3ccccc3)Cc3ccccc3)C(=O)N21` (centres undefined), the TGI (as a rule, the concentration giving total growth inhibition) in the assay on ACHN renal was more than 100 µM; in the assay on CAKI-1 renal it was more than 100 µM; with LXFL 529 NSCLC, more than 100 µM; in the assay on M19-MEL melanoma, more than 100 µM; in the assay on OVCAR-3 ovarian, more than 100 µM; with SR leukemia, 54.7 µM. Further, the concentration for total growth inhibition (TGI) in the assay on TK-10 renal was more than 100 µM; in the assay on U251 CNS it was 70.8 µM; in the assay with UACC-62 melanoma it was 61 µM.

As for `CC1=Nc2ccccc2SC(c2c(Cl)cccc2Cl)C1` (centres undefined), the TGI was determined as 3.19 µM with ACHN renal; 5.3 µM in the assay with CAKI-1 renal; 1.69 µM in the assay on LXFL 529 NSCLC; 2.44 µM in the assay on M19-MEL melanoma; 0.885 µM with OVCAR-3 ovarian; 3.89 µM in the assay on TK-10 renal. The results for the concentration for total growth inhibition (TGI) with U251 CNS and in the assay on UACC-62 melanoma were 1.14 µM and 2.52 µM, respectively.

Take `CN/N=C(/c1nc2ccc([N+](=O)[O-])cc2[nH]c1=O)C(O)c1ccc(C(O)/C(=N\NC)c2nc3ccc([N+](=O)[O-])cc3[nH]c2=O)cc1` (centres undefined): the total growth inhibition concentration (TGI) with ACHN renal, in the assay with CAKI-1 renal, with LXFL 529 NSCLC, in the assay with M19-MEL melanoma, in the assay on OVCAR-3 ovarian and with TK-10 renal was more than 100 µM throughout. Further, the concentration for total growth inhibition (TGI) in the assay with U251 CNS and in the assay with UACC-62 melanoma was more than 100 µM in each case.

Consider `C#CCN(N=O)C(=O)ON1C(=O)CCC1=O`, for which the TGI with ACHN renal, with LXFL 529 NSCLC, with M19-MEL melanoma, with OVCAR-3 ovarian, with TK-10 renal and with U251 CNS was more than 100 µM each time. In the assay with UACC-62 melanoma, this compound showed a TGI of more than 100 µM.

For `O=C1CCC2(c3ccccc3)Nc3ccccc3N12` (centres undefined), the TGI in the assay with ACHN renal, with CAKI-1 renal, with LXFL 529 NSCLC, with M19-MEL melanoma, with OVCAR-3 ovarian and with TK-10 renal was more than 100 µM in each case. Also, the concentration for total growth inhibition (TGI) with U251 CNS and in the assay with UACC-62 melanoma was more than 100 µM throughout.

Take `O=C1c2ccccc2C(=O)C12CCc1ccccc12`: the TGI in the assay on ACHN renal, with CAKI-1 renal, in the assay with LXFL 529 NSCLC, in the assay with M19-MEL melanoma, with OVCAR-3 ovarian and in the assay on TK-10 renal was more than 100 µM throughout. Moreover, the TGI with U251 CNS and with UACC-62 melanoma was more than 100 µM in each case.

Take `COc1cc2c(c3c1c(=O)c1ccccc1n3C)C=CC(C)(C)O2`: the TGI with ACHN renal was more than 100 µM; with CAKI-1 renal it was more than 100 µM; in the assay on LXFL 529 NSCLC, more than 100 µM; in the assay on M19-MEL melanoma it was more than 100 µM; in the assay on OVCAR-3 ovarian it was more than 100 µM; in the assay with SR leukemia, 39.5 µM. In addition, the total growth inhibition concentration (TGI) in the assay on TK-10 renal, in the assay on U251 CNS and with UACC-62 melanoma was more than 100 µM in each case.

On to `C=C1C(=O)C23[C@H](O)C1CC[C@H]2[C@]12COC3(O)[C@@H](O)[C@@H]1C(C)(C)CC[C@@H]2O`, for which the total growth inhibition concentration (TGI) in the assay on ACHN renal was found to be 30.2 µM; in the assay with CAKI-1 renal, 4.89 µM; in the assay with LXFL 529 NSCLC it was 2.56 µM; with M19-MEL melanoma, 26.3 µM; with OVCAR-3 ovarian it was 28.2 µM; in the assay on SR leukemia, 34.9 µM. In addition, the figures for the concentration for total growth inhibition (TGI) in the assay on TK-10 renal, with U251 CNS and in the assay with UACC-62 melanoma were 31 µM, 18.9 µM and 23.6 µM, respectively.

On to `COc1cc(C2=NN(C(C)=O)C(c3cc(OC)c(OC)c(OC)c3)C2)ccc1O` (centres undefined), for which the GI50 (commonly the concentration giving 50% growth inhibition) with ACHN renal is 0.614 µM; in the assay with CAKI-1 renal, 0.317 µM; in the assay with MCF7 breast it was 0.276 µM; with OVCAR-3 ovarian, 0.289 µM; in the assay on SR leukemia, 0.0985 µM; with TK-10 renal, 0.723 µM. Further, the GI50 in the assay on U251 CNS was 0.42 µM; with UACC-62 melanoma it was 0.471 µM. Besides, the concentration for total growth inhibition (TGI) in the assay with ACHN renal was more than 100 µM; with CAKI-1 renal it was more than 21.5 µM; with MCF7 breast, more than 100 µM; in the assay with OVCAR-3 ovarian, 5.21 µM; in the assay with TK-10 renal, more than 100 µM; in the assay with U251 CNS it was more than 100 µM. The TGI in the assay with UACC-62 melanoma was more than 100 µM.

Take `CN(C)C(=S)/N=c1\ssc(=S)n1C`: the TGI in the assay with ACHN renal, with CAKI-1 renal, in the assay with LXFL 529 NSCLC, with M19-MEL melanoma, in the assay on SR leukemia and in the assay on TK-10 renal was more than 100 µM each time. The TGI with U251 CNS and in the assay with UACC-62 melanoma was more than 100 µM throughout.

As to `COc1cccc(CNc2ncnc3c2ncn3C2OC(CO)C(O)C2O)c1O` (centres undefined), the GI50 was 0.128 µM with ACHN renal; 0.0667 µM in the assay with CAKI-1 renal; 0.369 µM in the assay with MCF7 breast; 0.539 µM in the assay with OVCAR-3 ovarian; 0.0651 µM with SR leukemia; 0.058 µM with TK-10 renal. In addition, the figures for the GI50 in the assay on U251 CNS and with UACC-62 melanoma were 0.522 µM and 0.347 µM, respectively. In addition, the TGI is more than 100 µM in the assay on MCF7 breast; 4.11 µM in the assay with OVCAR-3 ovarian; 1.38 µM in the assay with TK-10 renal; more than 100 µM in the assay on U251 CNS; more than 31.8 µM in the assay on UACC-62 melanoma.

As to `COc1ccc(C2=NC(=O)NC2c2ccc(OC)cc2)cc1` (centres undefined), the GI50 in the assay with ACHN renal was 21.9 µM; with CAKI-1 renal it was 2.51 µM; in the assay with MCF7 breast, 4.34 µM; in the assay on OVCAR-3 ovarian, 10.8 µM; with SR leukemia, 1.63 µM; in the assay with TK-10 renal, 4.43 µM. Moreover, the figures for the GI50 in the assay with U251 CNS and in the assay with UACC-62 melanoma were 7.85 µM and 4.15 µM, respectively. Moreover, the concentration for total growth inhibition (TGI) in the assay on ACHN renal is more than 100 µM; with CAKI-1 renal, 15.4 µM; with MCF7 breast, more than 100 µM; with OVCAR-3 ovarian it was 35.3 µM; in the assay on SR leukemia, 6.91 µM; in the assay on TK-10 renal, 35.9 µM. The TGI in the assay on U251 CNS is more than 100 µM; with UACC-62 melanoma it was 32.7 µM.

On to `CN(C)c1ccc(/C=C(\NC(=O)c2ccccc2)c2nc3ccc4c(c3[nH]2)C(=O)c2ccccc2C4=O)cc1`, for which the concentration for total growth inhibition (TGI) with CAKI-1 renal, with LXFL 529 NSCLC, with M19-MEL melanoma, with OVCAR-3 ovarian, in the assay with TK-10 renal and with U251 CNS was more than 100 µM throughout. For the same compound, the concentration for total growth inhibition (TGI) in the assay with UACC-62 melanoma is more than 100 µM.

Turning to `COc1ccc(/C=C(\NC(=O)c2ccccc2)c2nc3ccccc3[nH]2)cc1OC`, the TGI in the assay with ACHN renal, in the assay with CAKI-1 renal, in the assay with LXFL 529 NSCLC, in the assay with M19-MEL melanoma, in the assay on OVCAR-3 ovarian and with SR leukemia was more than 100 µM in each case. The TGI in the assay with TK-10 renal, with U251 CNS and in the assay on UACC-62 melanoma was more than 100 µM throughout.
